One test has as its target T1, hog pancreatic elastase (Sus scrofa, UniProt P00772).
T1 construct: Purified elastases employed: hog pancreatic elastase (120 U/mg); host or cells: pancreas, by the enzyme's name only
Kind of test: Inhibition of purified pancreatic elastase, hydrolysis of synthetic paranitroanilide substrates. The test is classed as biochemical. The note with it: Pancreatic elastase 4×10^-9 M; molar ratio inhibitor/enzyme 4 × 10^4; 15 minutes pre-incubation. Here is the method: (§1) Purified elastases employed: hog pancreatic elastase (120 U/mg) and purified human leucocytic elastase starting from the spleen.
(§2) Molar concentration of these enzymes: pancreatic elastase: 4×10^-9 M; leucocytic elastase: 10×10^-9 M.
(§3) The enzymatic activity of these elastases is followed by hydrolysis of specific synthetic substrates: N-succinoyltrialanine paranitroanilide, acetyl-bis alanylprolyl-alanine paranitroanilide at a final concentration of 1.25 mM in a Tris/HCl buffer, pH=8-8.6. The variation in optical density at 410 nm is followed directly in a Beckman type Acta C III spectrophotometer.
(§4) In the inhibition tests, the oleoyl compounds are pre-incubated 15 minutes with the elastases before determing the residual enzymatic activities.

For test [1], the target named is T2, human leucocytic elastase (Homo sapiens, UniProt P08246).
T2 construct: purified human leucocytic elastase starting from the spleen; from tissue; host or cells: human spleen
T2 sequence (P08246 30-267): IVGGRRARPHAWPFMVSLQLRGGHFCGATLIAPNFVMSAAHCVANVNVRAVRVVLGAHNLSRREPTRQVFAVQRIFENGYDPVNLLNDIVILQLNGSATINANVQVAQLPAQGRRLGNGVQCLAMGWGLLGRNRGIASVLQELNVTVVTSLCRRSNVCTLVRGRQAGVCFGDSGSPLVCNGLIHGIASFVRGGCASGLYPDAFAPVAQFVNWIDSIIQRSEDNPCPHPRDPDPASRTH
Kind of test: Inhibition of purified leucocytic elastase, hydrolysis of synthetic paranitroanilide substrates. The note with it: for Percent inhibition: Leucocytic elastase 10×10^-9 M, molar ratio inhibitor/enzyme 4 × 10^4, 15 minutes pre-incubation; for elastase inhibitor (conclusion in words): conclusion on elastases in general. The test is classed as biochemical. Here is the method: as §1, §2, §3, §4

The target in test [2] is T3, pancreatic elastase (Sus scrofa, UniProt P00772). As to the kind of experiment: In vivo inhibition of degradation of cutaneous elastic fibers induced by intradermal injection of pancreatic elastase. Also on record: host or cells: exogenous enzyme injected into rabbit skin. The note with it: rabbit skin, intradermal pretreatment, histology and quantitative morphometry. On the procedure:
2. In vivo study of the inhibiting action of Oleoyl-bis-alanyl-proline-alanine towards the enzymatic degradation of cutaneous elastic fibers induced by intradermal injection of pancreatic elastase
For these tests, young Garenne rabbits (1 month) have been employed. 3 types of intradermal injections (volume: 0.25 ml; solvent: phosphate buffer, pH 7.0) have been performed on the backs of the test animals.
1. Control injection: injection of 0.25 ml of phosphate buffer only;
2. Injection of hog pancreatic elastase: 10 micrograms (1.2 units […]) in 0.25 ml of buffer; and
3. Injections of 50-250 micrograms of Ol--(Ala)2 --Pro--Ala (8×10^-8 to 3×10^-7 mole) in 0.25 ml of buffer followed by an injection at the same site of 10 micrograms (1.2 units, 4×10^-10 mole) of pancreatic elastase in 0.25 ml of buffer.
Different samples of rabbit skin are then treated in histology in order to permit visualization of elastic fibers.
The histologic observation and studies of quantitative morphometry reveal: […]

For test [3], the target named is T3, pancreatic elastase. Kind of test: Resistance of pretreated radiolabelled elastin to hydrolysis by pancreatic elastase. The note with it: elastin pretreated 24 hours, washed, then 0.05 mg pancreatic elastase; molar ratio inhibitor/enzyme 5 × 10^4. The test is classed as biochemical, hog. On the procedure: (1c) Elastin pretreated with these substances is partially resistant to enzymatic hydrolysis by the elastases.
For these tests, elastin has been radiolabelled with tritium borohydride NaBH4, specific activity: 1.7×10^5 cmp/mg.
1 mg of elastin is treated with […] of a solution of different compounds in 1 ml of Tris HCl buffer, pH-8.0, for 24 hours; the mixture is centrifuged and the insoluble elastin washed with 1 ml of buffer. 0.05 mg of pancreatic elastase is then added and hydrolysis of the polymer is quantified by measurement of the radioactive peptides liberated during the course of the hydrolysis.

Molecules are shown by their SMILES. Residues, ends and D or L forms follow the SMILES beside them. *: point of attachment. Oleoyl = CCCCCCCC/C=C\CCCCCCCC(=O)*

T3 sequence (P00772 27-266): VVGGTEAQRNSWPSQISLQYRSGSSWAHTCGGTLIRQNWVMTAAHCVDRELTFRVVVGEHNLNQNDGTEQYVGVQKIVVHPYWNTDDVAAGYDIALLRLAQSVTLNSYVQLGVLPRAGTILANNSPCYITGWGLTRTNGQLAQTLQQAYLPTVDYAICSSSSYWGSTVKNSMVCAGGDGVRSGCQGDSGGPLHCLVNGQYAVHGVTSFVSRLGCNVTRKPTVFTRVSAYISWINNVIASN
T1 sequence (P00772 27-266): as above

Regarding `CCCCCCCC/C=C\CCCCCCCC(=O)N[C@@H](C)C(=O)N[C@@H](C)C(=O)N1CCC[C@H]1C(=O)N[C@@H](C)C(=O)O` [Ol(Ala)2 Pro Alanine, Oleoyl-L-Alanyl-L-Alanyl-L-Prolyl-L-Alanine] (Oleoyl-AAPA-OH), the Percent inhibition turned out to be 15% on hog pancreatic elastase and 5% in test [1]. In test [1], the “elastase inhibitor (conclusion in words)” value was “act as elastase inhibitors”. Besides, the elastic tissue preserved on pancreatic elastase [2] (molar ratio inhibitor/enzyme 2×10^2) is recorded as 40-60%; on pancreatic elastase [2] (molar ratio inhibitor/enzyme 10^3), 60-80%.
Turning to `C[C@H](N)C(=O)N[C@@H](C)C(=O)N1CCC[C@H]1C(=O)N[C@@H](C)C(=O)O` [H(Ala)2 Pro Alanine, L-Alanyl-L-Alanyl-L-Proyl-Alanine, reference compound] (H-AAPA-OH), the “Percent inhibition relative to samples without pretreatment” value at pancreatic elastase [3] is given as 0%.
Still for that read-out and setting: as for `CC(C)[C@H](NC(=O)[C@@H]1CCCN1C(=O)[C@H](C)NC(=O)[C@H](C)N)C(=O)O` [H(Ala)2 Pro Valine, L-Alanyl-L-Alanyl-L-Prolyl-L-Valine, reference compound] (H-AAPV-OH), the figure is 0%.
With `CCCCCCCC/C=C\CCCCCCCC(=O)N[C@@H](C)C(=O)N[C@@H](C)C(=O)N1CCC[C@H]1C(=O)N[C@H](C(=O)O)C(C)C` [Ol(Ala)2 Pro Valine, Oleoyl-L-Alanyl-L-Alanyl-L-Prolyl-L-Valine] (Oleoyl-AAPV-OH), at pancreatic elastase [3], the “Percent inhibition relative to samples without pretreatment” value is 46%. For the same compound, in test [1], the Percent inhibition is recorded as 51% and the “elastase inhibitor (conclusion in words)” value is recorded as “act as elastase inhibitors”.
Consider `CCCCCCCC/C=C\CCCCCCCC(=O)N[C@@H](C)C(=O)N[C@@H](C)C(=O)N1CCC[C@H]1C(=O)N[C@@H](C)C=O` [Ol(Ala)2 Pro Alaninal, Oleoyl-L-Alanyl-L-Alanyl-L-Prolyl-L-Alaninal] (Oleoyl-AAPA-aldehyde), for which the “Percent inhibition relative to samples without pretreatment” value at pancreatic elastase [3] is 98%. Moreover, the Percent inhibition on hog pancreatic elastase was 85%; in test [1], 90%. In addition, in test [1], the “elastase inhibitor (conclusion in words)” value was “act as elastase inhibitors”.

(Values after patent publication US4665053A, “Peptide derivatives, the preparation and their use as elastase inhibitors” (Centre National de la Recherche Scientifique, priority 1983, dated 1987).)
